US11235029B2, “Methods for treating heart failure with a TRKB agonist” (Temple University-Of The Commonwealth System of Higher …, priority 2017, dated 2022)

Tests used:
eNOS = test: immunoblot of eNOS phosphorylated at serine 1177 in myocytes; assay type: cell-based; details: acute infusion, 100 nM
From the text: FIG. 8 depicts an immunoblot of eNOS phosphorylated at serine 1177 (^ser1177p-eNOS) and total eNOS (t-eNOS), taken from myocytes under control conditions (NS) and treated with LM22A-4.
Another possible mechanism of protection granted by TrkB stimulation is eNOS stimulation. […] Thus, it is plausible that TrkB agonists enhance eNOS signaling. FIG. 8 depicts an immunoblot of eNOS phosphorylated at serine 1177 (^ser1177p-eNOS) and total eNOS (t-eNOS), taken from myocytes under control conditions (NS) and treated with LM22A-4.

[1] = tested on: mice with myocardial infarction; test: chronic infusion of TrkB agonist in mice with myocardial infarction (echocardiography, fibrosis, heart rate); assay type: in vivo
Experimental: FIG. 7, comprising FIG. 7A through FIG. 7C, depicts experimental results. FIG. 7A depicts rescue of cardiac defects following MI resulting from chronic infusion of LM22A-4, a specific agonist of TrkB (Massa S M, et a. J Clin Invest. 2010; 120:1774-85) at 0.2 mg/kg/day in saline, started 1 week after MI. […] FIG. 7B depicts cardiac tissue sections and quantitation of fibrosis observed in sham, MI, and MI+LM22A-4 groups. Compared to the MI group without treatment, fibrosis was lower in TrkB agonist-treated hearts.
FIG. 7A depicts rescue of cardiac defects following FIG. 7A depicts rescue of cardiac defects following MI resulting from chronic infusion of LM22A-4, a specific agonist of TrkB (Massa S M, et al. J Clin Invest. 2010; 120:1774-85), at 0.2 mg/kg/day in saline, started 1 week after MI.
Overall fibrosis was lower in TrkB agonist-treated hearts (FIG. 7B). FIG. 7B depicts cardiac tissue sections and quantitation of fibrosis observed in sham, MI, and MI+LM22A-4 groups. Compared to the MI group without treatment, fibrosis was lower in TrkB agonist-treated hearts.

BDNF = BDNF immunoblot of lysates from isolated control myocytes; assay type: cell-based
[2] = 0.2 mg/kg/day in saline, chronic infusion started 1 week after MI, 4 weeks after severe MI

Question: With `O=C(NCCO)c1cc(C(=O)NCCO)cc(C(=O)NCCO)c1` [LM22A-4, N,N′,N″-tris(2-hydroxyethyl)-1,3,5-benzenetricarboxamide] as the compound, how does the “eNOS activation by phosphorylation at serine 1177” value (eNOS) read?
Answer: activates eNOS

Question: And the LVDs [1, 2]?
Answer: 6.1±0.25 mm

Question: What about the “ejection fraction (% EF)” value [1, 2] of the same compound?
Answer: 23.3±2.1%

Question: And the “fibrosis compared to the MI group without treatment” value ([1]; cardiac tissue sections, MI+LM22A-4 group)?
Answer: lower

Question: And the heart rate ([1]; chronic infusion, MI mice)?
Answer: 494±17.8 bpm

Question: And the “myocardial BDNF (immunoblot)” value (BDNF)?
Answer: induced myocardial BDNF
